In patent US20070004759A1, “Fungicidal mixtures for controlling rice pathogens” (priority 2004, published 2007):

System: Cochliobolus miyabeanus
Test: Activity against brown spot of rice caused by Cochliobolus miyabeanus, protective application
Assay type: in vivo
Settings: individual active compound, rice seedlings cultivar Tai-Nong 67, protective spray, evaluated six days after inoculation
Method: The active compounds, separately or jointly, were prepared as a stock solution with 0.25% by weight of active compound in acetone or DMSO. 1% by weight of the emulsifier Uniperol® EL (wetting agent having emulsifying and dispersing action based on ethoxylated alkylphenols) was added to this solution, and the solution was diluted with water to the desired concentration.
Leaves of potted rice seedlings of the cultivar “Tai-Nong 67” were sprayed to runoff point with an aqueous suspension of the concentration of active compound stated below. The next day, the plants were inoculated with an aqueous spore suspension of Cochliobolus miyabeanus. The test plants were then placed in climatized chambers at 22-24° C. and 95-99% relative atmospheric humidity for six days. The extent of the development of the infection on the leaves was then determined visually.
Evaluation is carried out by determining the percentage of infected plants. These percentages were converted into efficacies.
The efficacy (E) is calculated as follows using Abbot's formula: E=(1−α/β)·100
α corresponds to the fungicidal infection of the treated plants in % and
β corresponds to the fungicidal infection of the untreated (control) plants in %
An efficacy of 0 means that the infection level of the treated plants corresponds to that of the untreated control plants; an efficacy of 100 means that the treated plants are not infected.
The expected efficacies of mixtures of active compounds are determined using Colby's formula (Colby, R. S., Weeds, 15, 20-22, 1967) and compared with the observed efficacies.
Colby's formula: E=x+y−x·y/100 • E expected efficacy, expressed in % of the untreated control, when using the mixture of the active compounds A and B at the concentrations a and b • x efficacy, expressed in % of the untreated control, when using the active compound A at the concentration a • y efficacy, expressed in % of the untreated control, when using the active compound B at the concentration b

Compound | Efficacy in % of the untreated control (4 ppm in the spray liquor) | Efficacy in % of the untreated control (16 ppm in the spray liquor)
C[C@H](Nc1c(-c2c(F)cc(F)cc2Cl)c(Cl)nc2ncnn12)C(F)(F)F [B] | 5% | 41%
CC1CCN(c2c(-c3c(F)cc(F)cc3F)c(Cl)nc3ncnn23)CC1 [compound I, 5-chloro-7-(4-methylpiperidin-1-yl)-6-(2,4,6-trifluorophenyl)-[1,2,4]triazolo[1,5-a]pyrimidine] | 5% | 17%
CC1(C(=O)Nc2ccc(O)c(Cl)c2Cl)CCCCC1 [compound II, N-(2,3-dichloro-4-hydroxyphenyl)-1-methylcyclohexanecarboxamide] | 0% | 0%
CC1CCN(c2c(-c3c(F)cccc3Cl)c(Cl)nc3ncnn23)CC1 [A] | 29% | 53%
